Test results as given in paper PMC9486889 (Japanese Journal of Clinical Oncology, 2022).

Tested on: relapsed or refractory non-Hodgkin's lymphoma
Test: Anti-tumor activity
Type: in vivo, Japanese patients
[1] = 40 mg BIW cohort, seven patients
[2] = NHL other than ATL, 30 mg BIW, 5 patients
[3] = NHL other than ATL, 40 mg BIW, 3 patients

SMILES: Nc1cc(F)ccc1NC(=O)c1ccc(CNC(=O)/C=C/c2cccnc2)cc1 [HBI-8000, tucidinostat]
- Stable disease after the first cycle (30 mg BIW cohort): three of six
- Disease control (CR + CRu + PR + SD) (30 mg BIW cohort, six patients): 66.7%
- ORR (30 mg BIW cohort, six patients): 16.7%
- Objective response (40 mg BIW cohort): five of seven
- Partial responders with adult T-cell leukemia-lymphoma (40 mg BIW cohort): three
- Disease control (CR + CRu + PR + SD) [1]: 100%
- ORR [1]: 71.4%
- Best overall response: PR (ATL, 30 mg BIW, 1 patient): 0 (0) n (%)
- Best overall response: SD (ATL, 30 mg BIW, 1 patient): 1 (100) n (%)
- Disease control (CR, PR or SD) (ATL, 30 mg BIW, 1 patient): 1 (100) n (%)
- Objective response (CR or PR) (ATL, 30 mg BIW, 1 patient): 0 (0.0) n (%)
- Best overall response: PR (ATL, 40 mg BIW, 4 patients): 3 (75.0) n (%)
- Best overall response: SD (ATL, 40 mg BIW, 4 patients): 1 (25.0) n (%)
- Disease control (CR, PR or SD) (ATL, 40 mg BIW, 4 patients): 4 (100) n (%)
- Objective response (CR or PR) (ATL, 40 mg BIW, 4 patients): 3 (75.0) n (%)
- Objective response (NHL other than ATL, 30 mg BIW cohort): 20%
- Best overall response: CR [2]: 0 (0) n (%)
- Best overall response: CRu [2]: 1 (20.0) n (%)
- Best overall response: PD [2]: 2 (40.0) n (%)
- Best overall response: SD [2]: 2 (40.0) n (%)
- Disease control (CR, CRu, PR or SD) [2]: 3 (60.0) n (%)
- Objective response (CR, CRu or PR) [2]: 1 (20.0) n (%)
- Objective response (NHL other than ATL, 40 mg BIW cohort): 66.7%
- Best overall response: CR [3]: 1 (33.3) n (%)
- Best overall response: CRu [3]: 1 (33.3) n (%)
- Best overall response: PD [3]: 0 (0) n (%)
- Best overall response: SD [3]: 1 (33.3) n (%)
- Disease control (CR, CRu, PR or SD) [3]: 3 (100) n (%)
- Objective response (CR, CRu or PR) [3]: 2 (66.7) n (%)
- Responses in patients with ATL (both cohorts): three out of five
